In PubChem BioAssay AID1963965 (Molecular Pharmacology Branch, DTP, NCI, 2024):

Tested on: 996289-038-R-J1-PDC spheroid viability
Test: Anticancer human tumor 996289-038-R-J1-PDC patient-derived colon adenocarcinoma cell line growth inhibition [PI3K]
Conditions: spheroids with HUVEC and MSC; for IC50: curve of first compound; for viability, T/C: stronger effect = lower value
Method in brief: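 Spheroid viability read-out. Co-cultures contained the tumor line plus HUVEC and human MSCs. Each agent was paired with a PI3K inhibitor (inavolisib, alpelisib, duvelisib, copanlisib) across half-log dilutions starting at clinical Cmax, or at 10 microM when Cmax was unknown.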

[1] = second compound 0.0316 µM, first compound 0.0316 µM
[2] = second compound 0.0316 µM, first compound 0.1 µM
[3] = second compound 0.0316 µM, first compound 0.316 µM
[4] = second compound 0.0316 µM, first compound 1 µM
[5] = second compound 0.1 µM, first compound 0.0316 µM
[6] = second compound 0.1 µM, first compound 0.1 µM
[7] = second compound 0.1 µM, first compound 0.316 µM
[8] = second compound 0.1 µM, first compound 1 µM
[9] = second compound 0.316 µM, first compound 0.0316 µM
[10] = second compound 0.316 µM, first compound 0.1 µM
[11] = second compound 0.316 µM, first compound 0.316 µM
[12] = second compound 0.316 µM, first compound 1 µM
[13] = second compound 1 µM, first compound 0.0316 µM
[14] = second compound 1 µM, first compound 0.1 µM
[15] = second compound 1 µM, first compound 0.316 µM
[16] = second compound 1 µM, first compound 1 µM
[17] = second compound 3.16 µM, first compound 0.0316 µM
[18] = second compound 3.16 µM, first compound 0.1 µM
[19] = second compound 3.16 µM, first compound 0.316 µM
[20] = second compound 3.16 µM, first compound 1 µM
[21] = second compound 10 µM, first compound 0.0316 µM
[22] = second compound 10 µM, first compound 0.1 µM
[23] = second compound 10 µM, first compound 0.316 µM
[24] = second compound 10 µM, first compound 1 µM
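Note: spheroids exposed to compounds for seven days before viability read.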
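Throughout, for viability, T/C: luminescence used as a proxy for viable cell amount; percent viability relative to DMSO vehicle control as 100%.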

Molecule `CCN1CCN(Cc2ccc(Nc3ncc(F)c(-c4cc(F)c5nc(C)n(C(C)C)c5c4)n3)nc2)CC1` + Cc1nc(NC(=O)N2CCCC2C(N)=O)sc1-c1ccnc(C(C)(C)C(F)(F)F)c1 has an IC50 (second compound 0.0316 µM) of over 1000 nM, an IC50 (second compound 0.1 µM) of over 1000 nM and an IC50 (second compound 0.316 µM) of over 1000 nM. The IC50 (second compound 1 µM) was over 1000 nM, the IC50 (second compound 3.16 µM) was 37.6 nM and the IC50 (second compound 10 µM) was under 3.16 nM. For the same molecule, the viability, T/C (second compound 0.0316 µM, first compound 0.00316 µM) was 84.2%, the viability, T/C (second compound 0.0316 µM, first compound 0.01 µM) was 72% and the viability, T/C [1] was 83.4%. It also gave a viability, T/C [2] of 78.7%, a viability, T/C [3] of 72.7% and a viability, T/C [4] of 79.7%. For the same molecule, the viability, T/C (second compound 0.1 µM, first compound 0.00316 µM) was 89.8%, the viability, T/C (second compound 0.1 µM, first compound 0.01 µM) was 83% and the viability, T/C [5] was 79.7%. The viability, T/C [6] was 75.4%, the viability, T/C [7] was 75.2% and the viability, T/C [8] was 67.3%. It also gave a viability, T/C (second compound 0.316 µM, first compound 0.00316 µM) of 85.9%, a viability, T/C (second compound 0.316 µM, first compound 0.01 µM) of 74.4% and a viability, T/C [9] of 70.7%. It also gave a viability, T/C [10] of 63%, a viability, T/C [11] of 63.1% and a viability, T/C [12] of 59.2%. It also gave a viability, T/C (second compound 1 µM, first compound 0.00316 µM) of 75.8%, a viability, T/C (second compound 1 µM, first compound 0.01 µM) of 74.2% and a viability, T/C [13] of 56.7%. For the same molecule, the viability, T/C [14] was 54.8%, the viability, T/C [15] was 58.4% and the viability, T/C [16] was 50.9%. The viability, T/C (second compound 3.16 µM, first compound 0.00316 µM) was 51.4%, the viability, T/C (second compound 3.16 µM, first compound 0.01 µM) was 56.2% and the viability, T/C [17] was 51.4%. For the same molecule, the viability, T/C [18] was 46.1%, the viability, T/C [19] was 43.7% and the viability, T/C [20] was 44.2%. It also gave a viability, T/C (second compound 10 µM, first compound 0.00316 µM) of 37.5%, a viability, T/C (second compound 10 µM, first compound 0.01 µM) of 40% and a viability, T/C [21] of 33.9%. The viability, T/C [22] was 33.6%, the viability, T/C [23] was 29.6% and the viability, T/C [24] was 27.9%.
In the case of `Cn1ncc(Cl)c1-c1cc(C(=O)NC(CN)Cc2cccc(F)c2)sc1Cl` (centres undefined) + Cc1nc(NC(=O)N2CCCC2C(N)=O)sc1-c1ccnc(C(C)(C)C(F)(F)F)c1, the IC50 (second compound 0.0316 µM) is reported as 9680 nM, the IC50 (second compound 0.1 µM) is reported as 4610 nM and the IC50 (second compound 0.316 µM) is reported as 2740 nM. The IC50 (second compound 1 µM) was 1390 nM, the IC50 (second compound 3.16 µM) was 659 nM and the IC50 (second compound 10 µM) was under 31.6 nM. The viability, T/C [1] was 76.9%, the viability, T/C [2] was 91.2% and the viability, T/C [3] was 78.2%. It also gave a viability, T/C [4] of 63.9%, a viability, T/C (second compound 0.0316 µM, first compound 3.16 µM) of 60% and a viability, T/C (second compound 0.0316 µM, first compound 10 µM) of 47.6%. For the same molecule, the viability, T/C [5] was 89.2%, the viability, T/C [6] was 80.3% and the viability, T/C [7] was 78.5%. For the same molecule, the viability, T/C [8] was 56%, the viability, T/C (second compound 0.1 µM, first compound 3.16 µM) was 55.9% and the viability, T/C (second compound 0.1 µM, first compound 10 µM) was 45.1%. It also gave a viability, T/C [9] of 75.2%, a viability, T/C [10] of 87.5% and a viability, T/C [11] of 67.1%. For the same molecule, the viability, T/C [12] was 58%, the viability, T/C (second compound 0.316 µM, first compound 3.16 µM) was 51.9% and the viability, T/C (second compound 0.316 µM, first compound 10 µM) was 31.5%. It also gave a viability, T/C [13] of 82.4%, a viability, T/C [14] of 71.8% and a viability, T/C [15] of 63.4%. For the same molecule, the viability, T/C [16] was 53.9%, the viability, T/C (second compound 1 µM, first compound 3.16 µM) was 42.4% and the viability, T/C (second compound 1 µM, first compound 10 µM) was 31.7%. The viability, T/C [17] was 61%, the viability, T/C [18] was 63.6% and the viability, T/C [19] was 59.2%. For the same molecule, the viability, T/C [20] was 43.4%, the viability, T/C (second compound 3.16 µM, first compound 3.16 µM) was 34.5% and the viability, T/C (second compound 3.16 µM, first compound 10 µM) was 24.9%. It also gave a viability, T/C [21] of 34.8%, a viability, T/C [22] of 36.4% and a viability, T/C [23] of 41.6%. For the same molecule, the viability, T/C [24] was 35.5%, the viability, T/C (second compound 10 µM, first compound 3.16 µM) was 27.3% and the viability, T/C (second compound 10 µM, first compound 10 µM) was 16.2%.
